The results in this text go back to patent publication US8663608B2, “Hydroxytyrosol compounds” (University of Cape Town, priority 2009, dated 2014).

Values joined by “and” are separate entries in the source; they are usually repeats but may differ in a detail not shown here. Equal entries are not always repeated.

A short description of data set [1]: DPPH radical scavenging assay. It counts as biochemical. The following applies: for Radical Scavenging Activity (%): compared to standard ascorbic acid (100%); for Final time of reaction: time to steady state. The protocol: The DPPH assay is based on the change in absorbance at 515 nm, upon reduction of the DPPH radical, by an antioxidant. The antioxidant activity of a putative antioxidant is measured by monitoring the decrease in absorbance when the colour of the solution fades. In this assay, the reaction between the test antioxidant and DPPH radical is allowed to continue until it reaches a steady state. The amount of the radical quenched when steady state is reached is dependent on the antioxidant capacity and the concentration of the antioxidant. 100 μl (1 mg/3 ml) of the respective sample was added to 3.9 ml DPPH solution (25 mg/L in methanol). The decrease in absorbance at 515 nm was monitored using a Unicam UV-visible spectrophotometer, until the reaction reached steady state.

The subject of data set [2] is Bcl-2. Nature of the data set: Western blot of Bcl-2 expression in UVA-irradiated HaCaTs. The following applies: for % Bcl-2 Expression: relative to control (100%). The format is cell-based, human. The source says: (§1) Apoptosis can take place through the extrinsic pathway or the intrinsic pathway. The extrinsic pathway involves transmembrane receptor-mediated interactions which involve members of the tumour necrosis factor (TNF). The intrinsic pathway is a mitochondrial-initiated event and thus is of interest for this study. The intrinsic pathway can progress in a caspase-dependent or independent way. The caspase-independent route involves a protein called AIF which when released from the mitochondria, translocates directly to the nucleus and induces apoptosis. The alternative caspase-dependent route involves members of the Bcl-2 family of proteins. This family of proteins is responsible for regulating the permeability of the mitochondrial membrane and can be either pro-apoptotic or anti-apoptotic; Bcl-2 is anti-apoptotic while Bax is pro-apoptotic. The cells' sensitivity to apoptotic stimuli depends on the balance of pro-apoptotic (Bax) and anti-apoptotic (Bcl-2) proteins. […] An excess of Bax results in the cells being more susceptible to apoptosis, and an excess of Bcl-2 renders the cells more resistant to apoptosis. To determine the nature of the anti-apoptotic effect mediated by Polymer Compound 57 and hydroxytyrosol due to UVA irradiation, the Bax/Bcl-2 ratio was studied using Western blot analysis. To evaluate the expression of Bcl-2, Bax and AIF, the cells were cultured and treated with varying concentrations between 200 and 1000 μM of Polymer Compound 57 and hydroxytyrosol for 18 hrs, and then irradiated at 22.3 J/cm^2. Protein extraction was conducted and proteins were quantified using the BCA method. […] The purpose of this control is to ensure that it is only the UVA rays that result in the observed effects, and not the heat in the chamber. Alpha tubilin was used as a loading control in each experiment to ensure that the results were quantified correctly. Since the Western blot results are quantified by band size, it is important to ensure that each sample has the same amount of protein when loaded and the loading control helps to determine this. The band obtained when the proteins are probed with the loading control represent the amount of protein in that loaded sample.

Data set [3] concerns Bax. The experiment in a line: Western blot of Bax expression in UVA-irradiated HaCaTs. It counts as cell-based, human. The following applies: for % Bax Expression: relative to control (100%).
From the text: as §1

Data set [4] deals with AIF. Nature of the data set: Western blot of AIF expression in UVA-irradiated HaCaTs. The following applies: for % AIF Expression: relative to control (100%). The format is cell-based, human.
From the text: as §1
Background: A western blot detects proteins with antibodies after separation by electrophoresis.

Data set [5] has as its system HaCaTs. Nature of the data set: XTT cell viability assay in HaCaTs. The format is cell-based, human. The protocol:
To evaluate the toxicity of Polymer Compound 57 an XTT assay was conducted. The assay is based on the ability of viable cells to reduce yellow XTT tetrazolium salts to an orange formazan which is then measured at an absorbance of 450 nm. The HaCaTs were incubated overnight with increasing concentrations of Polymer Compound 57. Cell viability was then evaluated by adding the XTT solution, incubating for 4 hrs at 37° C., and then reading the absorbance at 450 nm.
To further explore the effect of the antioxidants a dose and time response study was carried out to determine the long term effect of Polymer Compound 57.
(Tetrazolium dyes change colour on reduction, which living cells bring about.)

Data set [6] has as its system low density lipoprotein (LDL). Nature of the data set: LDL oxidation assay (conjugated diene formation). It counts as biochemical. The conditions noted are these: 50 μM test antioxidant; LDL oxidized with 5 μM CuCl2; relative to ascorbic acid. The protocol: Oxidation of low density lipoprotein (LDL) was performed according to the method developed by Nardini et al (1995). LDL was dialyzed in a 200 fold volume of PBS of pH 7 in the dark for 18 hrs. 100 μg/ml LDL, determined with the Bradford method, was oxidized with 5 μM CuCl2 for 4 hrs at 37° C. in the presence and absence of 50 μM test antioxidant. Conjugated diene formation was measured spectroscopically at 234 nm using a Unicam UV-visible spectrophotometer.
The antioxidant ability of Polymer Compound 57 to inhibit LDL oxidation was assessed by adding it to a reaction mixture containing LDL previously treated with copper to initiate the oxidation. The antioxidant ability of the compound was measured based on the increase in absorbance due to diene conjugation at 234 nm.

The nature of data set [7]: FRAP assay (iron (III) reduction ability). The format is biochemical. The conditions noted are these: 1 ml (1 mg/3 ml) sample. The protocol: The FRAP assay measures the ability of an antioxidant to reduce a ferroin analog, the Fe complex of tripyridyltriazine, Fe (TPTZ)^3+, to the intensely blue coloured Fe^2+ in an acidic medium. Results are obtained as absorbance increases at 593 nm and can be expressed relative to an antioxidant standard, ascorbic acid in this case.
1 ml (1 mg/3 ml) of the respective sample was added to 2.5 ml of potassium phosphate buffer (pH 7, 500 mM) 2.5 ml potassium ferricyanide was added. This was followed by incubation at 50° C. for 20 min. 10% (v/v) trichloracetic acid was added to stop the reaction. 2.5 ml of water was then added to 2.5 ml of the reaction. Iron chloride (0.5 ml) was added. The reaction was allowed to stand for 30 min after which the absorbance was read at 700 nm.

The test system of data set [8] is UVA-induced H2O2 production in keratinocytes. The experiment in a line: ROS assay (DHR 123, FACS) in UVA-irradiated keratinocytes. It counts as cell-based, human. The source says:
UVA irradiation of cultured human skin cells results in over-elevated levels of H2O2 and other ROS (reactive oxygen species), with H2O2 being the predominant species. Dihydrorhodamine (DHR 123) can be used to detect H2O2 produced following irradiating the cells with UVA. […] The mean fluorescence (MF), read on a fluorescent activated cell sorter (FACS) machine thus indicates intracellular H2O2 production. To elucidate the effect that Polymer Compound 57 would have on the over-expression of ROS due to irradiation, H2O2 production in keratinocytes was measured. The cells were first treated with the various concentrations of the Polymer Compound 57, irradiated with UVA and then exposed to the dye DHR 123.

Regarding `O=C1O[C@H]([C@@H](O)CO)C(O)=C1O` [Ascorbic acid, reference compound], in data set [1] (0.002M sample), the “Radical Scavenging Activity (%)” value is on record as 100% and the “Final time of reaction” value is 4 min.
With `OCCc1ccc(O)c(O)c1` [Hydroxytyrosol], the “% Bcl-2 Expression” value is given as 83% in data set [2] (200 μM), 90% in data set [2] (333 μM) and 110% in data set [2] (1000 μM). The “increase in Bcl-2 levels of expression relative to the control” value in data set [2] (1000 μM) was determined as 7%. The “% Bax Expression” value was determined as 128% in data set [3] (200 μM), 116% in data set [3] (333 μM) and 100% in data set [3] (1000 μM). The “% AIF Expression” value stood at 91% in data set [4] (200 μM), 82% in data set [4] (333 μM) and 42% in data set [4] (1000 μM). Further, in data set [4] (1000 μM), the “reduction of AIF levels relative to the control” value was 15%.
For the compound `OCCc1cc(O)c(O)c(-c2cc(CCO)cc(O)c2O)c1` [Polymer Compound 57], in data set [1] (0.0004M sample), the “Radical Scavenging Activity (%)” value was determined as 86.7%. In data set [1] (0.0004M sample), the “Final time of reaction” value is 7 min. Besides, the “long term toxicity to HaCaTs” value in data set [5] (3 day period, concentrations non-toxic over 24 hr) was “non-toxic”. For the same compound, the “concentrations resulting in marked decreases in cell viability” value in data set [5] (HaCaTs, overnight incubation) is listed as “higher than 500 μM”. In data set [5] (HaCaTs, overnight incubation), the “concentrations with no negative effect on cell viability” value lay in the range of 200 to 500 µM. Moreover, the “effect on absorbance at 234 nm due to diene conjugation” value in data set [6] is listed as “absorbance-decreasing effect”. For the same compound, the “% Bcl-2 Expression” value is on record as 50% in data set [2] (200 μM), 84% in data set [2] (333 μM) and 118% in data set [2] (1000 μM). Moreover, the “increase in Bcl-2 levels of expression relative to the control” value in data set [2] (500 μM) turned out to be 16%. Also, in data set [7], the “antioxidant activity equivalent of ascorbic acid” value worked out at 363 mg/L. Further, the “mean fluorescence (ROS level) relative to control of 100%” value was 87-100% in data set [8] (200 μM) and 85% in data set [8] (333 μM). For the same compound, the “reduction of Bax levels relative to the control” value in data set [3] (200 μM) is 75% and 70%; in data set [3] (333 μM), 87.5%; in data set [3] (500 μM), 87.5%. For the same compound, the “% Bax Expression” value came to 31% in data set [3] (200 μM), 17% in data set [3] (333 μM) and 14% in data set [3] (1000 μM). In data set [3] ("lowest concentration" as printed), the “decrease of Bax levels relative to the control (100%)” value was determined as 85%. Moreover, the figures for the “AIF levels reduced to, relative to the control” value in data set [4] (200 μM), in data set [4] (333 μM) and in data set [4] (500 μM) were 28%, 32% and 32%, respectively. Also, the entries for the “% AIF Expression” value in data set [4] (200 μM), in data set [4] (333 μM) and in data set [4] (1000 μM) were 78%, 74% and 38%, respectively.
